Each structure is given as a SMILES string.

A short description of the first data set: logP determination by HPLC on a reversed-phase column (C 18), EEC Directive 79/831 Annex V.A8. It counts as physicochemical. Particulars: method marker [a] (footnote not shown); isomer A / isomer B / isomer mixture as noted in the cell. Here is the method:
The stated logP values were determined in accordance with EEC Directive 79/831 Annex V.A8 by HPLC (high performance liquid chromatography) on a reversed-phase column (C 18). Temperature: 43° C.
As to `CCOC(=O)C(=NOCCCON=C(C(=O)OCC)c1cccc(C)n1)c1cccc(C)n1` [compound 76], the logP is 4.31^[a].

Turning to `CC(=NOCCCON=C(C)c1cccc(Br)n1)c1cccc(Br)n1` [compound 80], the logP is 5.99^[a].

As for `CC(=NOCC(F)(F)CON=C(C)c1cccc(C)n1)c1cccc(C)n1` [compound 86], the logP was 4.00^[a].

For `CC(=NOCCCON=C(C)c1nc(C)cs1)c1nc(C)cs1` [compound 87], the logP was 4.22^[a].

Consider `Cc1cccnc1C(CC(C)C)=NOCCCON=C(CC(C)C)c1ncccc1C` [compound 93], for which the logP was 5.96^[a].

`CC(=NOCC(C)CON=C(C)c1cc(C(C)(C)C)ccn1)c1cc(C(C)(C)C)ccn1` (stereo not drawn) [compound 104]: the logP is 5.88^[a].

On to `CCc1ccnc(C(C)=NOCC(C)CON=C(C)c2cc(CC)ccn2)c1` (stereo not drawn) [compound 105], for which the logP is 3.62^[a].

Regarding `CC(=NOCC(C)CON=C(C)c1ccc(Cl)nc1)c1ccc(Cl)nc1` (stereo not drawn) [compound 106], the logP is 4.79^[a].

Consider `CC(=NOCC(C)CON=C(C)c1ncccc1C)c1ncccc1C` (stereo not drawn) [compound 128], for which the logP was 3.12^[a].

`C=CCCC(=NOCCCON=C(CCC=C)c1ncccc1C)c1ncccc1C` [compound 129]: the logP was 4.59^[a].

Turning to `C=CCCC(=NOCC(C)CON=C(CCC=C)c1ncccc1C)c1ncccc1C` (stereo not drawn) [compound 130], the logP was 5.06^[a].

Regarding `CC(=NOCCCON=C(C)c1cc(-c2ccccc2)ccn1)c1cc(-c2ccccc2)ccn1` [compound 132], the logP is 5.74^[a].

As for `CC(=NOCC(C)CON=C(C)c1ccc(C)cn1)c1ccc(C)cn1` (stereo not drawn) [compound 133], the logP is 3.67^a].

As for `Cc1cccc(C(CS(C)(=O)=O)=NOCC(C)CON=C(CS(C)(=O)=O)c2cccc(C)n2)n1` (stereo not drawn) [compound 137], the logP was 3.08^[a].

In the case of `Cc1cccc(C(=NOCC(C)CON=C(c2cccc(C)n2)C(C)C)C(C)C)n1` (stereo not drawn) [compound 138], the logP is reported as 6.22^a].

Take `CC(=NOCC(=O)ON=C(C)c1cccc(C)n1)c1cccc(C)n1` [compound 158]: the logP was 2.50^[a].

For `CC(=NOC(=O)CCC(=O)ON=C(C)c1cccc(C)n1)c1cccc(C)n1` [compound 159], the logP was 2.40^[a].

With `CC(=NOCCCON=C(C)c1ccnc(C)n1)c1ccnc(C)n1` [compound 161], the logP is 3.06^[a].

For `CC(=NOCCCON=C(C)c1cncc(C)c1)c1cncc(C)c1` [compound 163], the logP is recorded as 1.54^a].

As for `CC(=NOCC(C)CON=C(C)c1cncc(C)c1)c1cncc(C)c1` (stereo not drawn) [compound 166], the logP is 1.78^a].

Regarding `CC(=NOCC(C)CON=C(C)c1ccnc(C)n1)c1ccnc(C)n1` (stereo not drawn) [compound 168], the logP is reported as 3.57^a].

With `Cc1cccc(C(CS(C)(=O)=O)=NOCCCON=C(CS(C)(=O)=O)c2cccc(C)n2)n1` [compound 170], the logP is 2.75^[a].

Consider `CC(=NOCCCC(=O)ON=C(C)c1cccc(C)n1)c1cccc(C)n1` [compound 171], for which the logP was 2.44^[a].

`CC(=NOCC(C)CON=C(C)c1cccc(CC(C)C)n1)c1cccc(CC(C)C)n1` (stereo not drawn) [compound 172]: the logP is 7.36^[a].

The same data set, now with this note: method marker [b]; isomer A / isomer B / isomer mixture as noted in the cell.
`CC(=NOCCON=C(C)c1ncc(Cl)cc1Cl)c1ncc(Cl)cc1Cl` [compound 55]: the logP was 5.39^[b].

Take `CC(=NOCCCON=C(C)c1ncc(Cl)cc1Cl)c1ncc(Cl)cc1Cl` [compound 56]: the logP was 5.78^[b].

In the case of `Cc1cc(C)nc(/C(N)=N/OCO/N=C(\N)c2cc(C)cc(C)n2)c1` [compound 58], the logP was 1.87^[b].

Turning to `C=C(CON=C(C)c1ccccn1)CON=C(C)c1ccccn1` [compound 60], the logP was 3.00^[b].

`C=C(CON=C(C)c1ccc2ccccc2n1)CON=C(C)c1ccc2ccccc2n1` [compound 63]: the logP is 6.51^[b].

On to `C=C(CON=C(C)c1nc(C)cc(OC)n1)CON=C(C)c1nc(C)cc(OC)n1` [compound 64], for which the logP was 3.17^[b].

Consider `C=C(CON=C(C)c1ncccc1C)CON=C(C)c1ncccc1C` [compound 65], for which the logP is 2.90^[b].

Consider `CC(=NOCC(=O)CON=C(C)c1cccc(C)n1)c1cccc(C)n1` [compound 71], for which the logP was 2.20^[b].

Turning to `CC(=NOCCCCCCCCCCON=C(C)c1cccc(C)n1)c1cccc(C)n1` [compound 74], the logP is 7.36^[b].

`C=C(CON=C(C)c1cccs1)CON=C(C)c1nccs1` [compound 78]: the logP was 4.31^[b].

As to `CC(=NOCC(CON=C(C)c1cccc(C)n1)=NO)c1cccc(C)n1` [compound 82], the logP is 1.91^[b].

Consider `Cc1nc(C(N)=NOCC(C)CON=C(N)c2csc(C)n2)cs1` (stereo not drawn) [compound 83], for which the logP was 3.54^[b].

With `CON=C(CON=C(C)c1cccc(C)n1)CON=C(C)c1cccc(C)n1` [compound 113], the logP is 3.26^[b].

As for `C=C(CON=C(C)c1cccc(C(C)=O)n1)CON=C(C)c1cccc(C(C)=O)n1` [compound 120], the logP was 5.15^[b].

Consider `Cc1cc(C)nc(C(N)=NOCCCCON=C(N)c2cc(C)cc(C)n2)c1` [compound 123], for which the logP was 2.67^[b].

On to `CC(=NOCCCCON=C(C)c1ccccn1)c1ccccn1` [compound 124], for which the logP is 3.00^[b].

As to `CC(=NOCCCCON=C(C)c1nc(C)c(C)s1)c1nc(C)c(C)s1` [compound 125], the logP is 5.59^[b].

As for `CC(=NOCON=C(C)c1nc(C)c(C)s1)c1nc(C)c(C)s1` [compound 126], the logP is 4.46^[b].

Turning to `C=C(CON=C(N)c1cc(C)cc(C)n1)CON=C(N)c1cc(C)cc(C)n1` [compound 127], the logP is 2.7^[b].

For the molecule `C=C(CON=C(C)c1ncccc1Cl)CON=C(C)c1ncccc1Cl` [compound 144], the logP is 3.64^[b].

Turning to `C=C(CON=C(C)c1cccc(OC)n1)CON=C(C)c1cccc(OC)n1` [compound 145], the logP is 5.89^[b].

For the molecule `C=C(CON=C(C)c1nc(C)cc(C)n1)CON=C(C)c1nc(C)cc(C)n1` [compound 146], the logP is 2.91^[b].

Take `C=C(CON=C(C)c1cccc(C)n1)CON=C(C)c1cccnc1Cl` [compound 147]: the logP was 3.34^[b].

Regarding `C=C(CON=C(C)c1cccnc1Cl)CON=C(C)c1cccnc1Cl` [compound 148], the logP is 3.53^[b].

`C=C(CON=C(C)c1ncc(C(F)(F)F)cc1Cl)CON=C(C)c1ncc(C(F)(F)F)cc1Cl` [compound 149]: the logP is 5.82^[b].

Take `C=C(CON=C(C)c1cccc(Br)n1)CON=C(C)c1cccc(Br)n1` [compound 150]: the logP was 5.96^[b].

`C=C(CON=C(C)c1ccc(Br)nc1)CON=C(C)c1ccc(Br)nc1` [compound 151]: the logP is 4.56^[b].

In the case of `C=C(CON=C(C)c1ccc(C)cn1)CON=C(C)c1ccc(C)cn1` [compound 152], the logP is 3.36^[b].

Consider `C=C(CON=C(C)c1ncc(Cl)cc1Cl)CON=C(C)c1ncc(Cl)cc1Cl` [compound 153], for which the logP is 5.75^[b].

Turning to `CCC(=NOCCCON=C(C)c1cccc(C)n1)c1ncccc1C` [compound 156], the logP is 3.28^[b].

`CC(=NOCC(=O)ON=C(C)c1cccc(C)n1)c1cccc(C)n1` [compound 158]: the logP is 2.57^b].

Consider `C=C(CON=C(C)c1cc(C)c2ccccc2n1)CON=C(C)c1cc(C)c2ccccc2n1` [compound 160], for which the logP is reported as 7.00^b].

For the molecule `C=C(CON=C(C)c1cccc(C(F)(F)F)n1)CON=C(C)c1cccc(C(F)(F)F)n1` [compound 176], the logP is 6.02^[b].

In the case of `C=C(CON=C(C)c1cc(C(=O)OC)cc(C)n1)CON=C(C)c1cc(C(=O)OC)cc(C)n1` [compound 178], the logP was 5.46^[b].

Consider `C=C(CON=C(C)c1cccc(C)n1)CON=C(N)c1nc(COC)c(C)c(COC)n1` [compound 183], for which the logP was 1.92^[b].

For `C=C(CON=C(C)c1cccc(C)n1)CON=C(N)c1nc(C)c(Cl)c(C)n1` [compound 184], the logP was 2.61^[b].

In the case of `C=C(CON=C(N)c1cc(C)cc(C)c1)CON=C(C)c1cccc(C)n1` [compound 185], the logP is 3.17^[b].

Take `C=C(CON=C(C)c1cccc(C)n1)CON=C(N)c1nccc(C)n1` [compound 187]: the logP is 1.73^[b].

For the molecule `C=C(CON=C(N)c1cc(Cl)cc(Cl)c1)CON=C(C)c1cccc(C)n1` [compound 190], the logP is 4.32^[b].

Consider `C=C(CON=C(C)c1cccc(C)n1)CON=C(N)c1nc(C)c(C)c(C)n1` [compound 191], for which the logP is 2.13^[b].

On to `C=C(CON=C(C)c1cccc(C)n1)CON=C(N)c1nc(C)cc(C)n1` [compound 192], for which the logP is 1.97^[b].

As for `C=C(CON=C(C)c1cccc(C)n1)CON=C(N)c1nc(C)cs1` [compound 193], the logP is on record as 2.70^b].

For `C=C(CON=C(C)c1cccc(C)n1)CON=C(C)c1ncc(Cl)cc1Cl` [compound 194], the logP is 4.72^b].

As to `C=C(CON=C(C)c1cccc(C)n1)CON=C(C)c1cccs1` [compound 196], the logP is 4.23^[b].

With `C=C(CON=C(C)c1cccc(C)n1)CON=C(C)c1cccn1C` [compound 197], the logP was 4.37^[b].

Regarding `C=C(CON=C(C)c1cccc(C)n1)CON=C(C)c1c(C)noc1C` [compound 198], the logP was 3.50^[b].

With `C=C(CON=C(C)c1cccc(C)n1)CON=C(N)c1ccc(C)n1C` [compound 199], the logP is 2.23^[b].

Take `C=C(CON=C(C)c1ccc(Cl)nc1)CON=C(C)c1cccc(C)n1` [compound 201]: the logP was 3.94^[b].

`C=C(CON=C(C)c1cccc(C)c1)CON=C(C)c1cccc(C)n1` [compound 205]: the logP is 5.03^[b].

Turning to `C=C(CON=C(C)c1cccc(C)n1)CON=C(C)c1cccc(OC)n1` [compound 207], the logP is 4.82^[b].

As to `C=C(CON=C(C)c1ccc(Br)nc1)CON=C(C)c1cccc(C)n1` [compound 208], the logP was 4.08^[b].

The values are drawn from US20100022559A1, “BISOXIMES AS FUNGICIDES” (BAYER CROPSCIENCE AG, priority 2006, published 2010).
